The target of assay [1] is von Hippel-Lindau disease tumor suppressor/Bcl-2-like protein 1 (Homo sapiens, UniProt Q07817+P40337). Description: Protac activity at VHL/BCL-XL in human MOLT-4 cells assessed as induction of BCL-XL degradation by measuring remaining BCL-XL level at 100 nM measured after 16 hrs by immunoblotting analysis relative to control. The assay is classed as cell-based. For orientation: Immunoblotting shows a protein as a band on a membrane.

In assay [2] the target is von Hippel-Lindau disease tumor suppressor/Apoptosis regulator Bcl-2 (Homo sapiens) (UniProt P10415+P40337). Put plainly: Protac activity at VHL/BCL2 in human MOLT-4 cells assessed as induction of BCL2 degradation at 100 nM measured after 16 hrs by immunoblotting analysis. It is filed as cell-based.
The subject of another assay is MOLT-4. Description: Antiproliferative activity against human MOLT-4 cells assessed as reduction in cell viability measured after 48 hrs by MTS assay. It is filed as functional, cell-based. The following applies: MOLT-4, 48 h.
The target in assay [3] is Protein cereblon/Bcl-2-like protein 1 (Homo sapiens, UniProt Q07817+Q96SW2). Put plainly: Protac activity at CRBN/BCL-XL in human MOLT-4 cells assessed as induction of BCL-XL degradation by measuring remaining BCL-XL level at 50 nM measured after 16 hrs by immunoblotting analysis relative to control. The assay is classed as cell-based.
The target of assay [4] is Protein cereblon/Apoptosis regulator Bcl-2 (Homo sapiens) (UniProt P10415+Q96SW2). Description: Protac activity at CRBN/BCL2 in human MOLT-4 cells assessed as induction of BCL2 degradation at 50 nM measured after 16 hrs by immunoblotting analysis. The assay is classed as cell-based.

Activity calls are given as the source filed them. The calls are words filed in the database; no cut-off is given here.

By IC50 is commonly meant the concentration that gives 50% inhibition.

von Hippel-Lindau disease tumor suppressor/Bcl-2-like protein 1, sequence (P40337 whole entry, looked up): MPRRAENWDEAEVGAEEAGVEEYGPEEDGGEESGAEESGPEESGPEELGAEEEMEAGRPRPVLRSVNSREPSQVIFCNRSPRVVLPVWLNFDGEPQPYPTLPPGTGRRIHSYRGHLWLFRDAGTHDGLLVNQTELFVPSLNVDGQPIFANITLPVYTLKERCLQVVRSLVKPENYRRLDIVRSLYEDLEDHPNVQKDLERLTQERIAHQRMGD
von Hippel-Lindau disease tumor suppressor/Bcl-2-like protein 1, sequence (Q07817 whole entry, looked up): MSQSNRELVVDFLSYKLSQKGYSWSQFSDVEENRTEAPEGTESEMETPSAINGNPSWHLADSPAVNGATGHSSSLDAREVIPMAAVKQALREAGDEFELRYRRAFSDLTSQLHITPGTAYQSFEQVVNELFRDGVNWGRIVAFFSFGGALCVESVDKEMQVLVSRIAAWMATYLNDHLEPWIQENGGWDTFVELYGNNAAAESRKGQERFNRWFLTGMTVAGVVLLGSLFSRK
von Hippel-Lindau disease tumor suppressor/Apoptosis regulator Bcl-2 (Homo sapiens), sequence (P10415 whole entry, looked up): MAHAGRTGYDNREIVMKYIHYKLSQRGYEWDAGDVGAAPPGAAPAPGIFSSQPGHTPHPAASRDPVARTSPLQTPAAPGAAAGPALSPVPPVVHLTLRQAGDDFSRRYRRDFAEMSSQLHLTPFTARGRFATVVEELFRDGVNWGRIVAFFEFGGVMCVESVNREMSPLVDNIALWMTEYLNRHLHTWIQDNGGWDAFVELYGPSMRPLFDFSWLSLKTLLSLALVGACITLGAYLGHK
von Hippel-Lindau disease tumor suppressor/Apoptosis regulator Bcl-2 (Homo sapiens), sequence (P40337 whole entry, looked up): as the sequence (P40337 whole entry, looked up) above
Protein cereblon/Bcl-2-like protein 1, sequence (Q07817 whole entry, looked up): as the sequence (Q07817 whole entry, looked up) above
Protein cereblon/Bcl-2-like protein 1, sequence (Q96SW2 whole entry, looked up): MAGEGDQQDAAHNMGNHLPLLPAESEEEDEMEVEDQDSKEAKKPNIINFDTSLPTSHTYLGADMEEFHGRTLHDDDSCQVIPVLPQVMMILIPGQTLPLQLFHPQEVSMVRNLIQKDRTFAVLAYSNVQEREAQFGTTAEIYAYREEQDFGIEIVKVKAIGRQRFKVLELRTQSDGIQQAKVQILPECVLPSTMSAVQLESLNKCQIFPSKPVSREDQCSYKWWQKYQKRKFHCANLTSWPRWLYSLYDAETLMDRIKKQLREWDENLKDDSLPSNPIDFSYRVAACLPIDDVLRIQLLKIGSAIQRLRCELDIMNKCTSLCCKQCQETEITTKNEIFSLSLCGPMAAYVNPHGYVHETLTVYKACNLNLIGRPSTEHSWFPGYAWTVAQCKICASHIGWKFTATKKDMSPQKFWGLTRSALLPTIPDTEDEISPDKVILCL
Protein cereblon/Apoptosis regulator Bcl-2 (Homo sapiens), sequence (P10415 whole entry, looked up): as the sequence (P10415 whole entry, looked up) above
Protein cereblon/Apoptosis regulator Bcl-2 (Homo sapiens), sequence (Q96SW2 whole entry, looked up): as the sequence (Q96SW2 whole entry, looked up) above

In the case of `Cc1ncsc1-c1ccc([C@H](C)NC(=O)[C@@H]2C[C@@H](O)CN2C(=O)[C@@H](NC(=O)CCCCCCCN2CCN(CC[C@H](CSc3ccccc3)Nc3ccc(S(=O)(=O)NC(=O)c4ccc(N5CCN(CC6=C(c7ccc(Cl)cc7)CCC(C)(C)C6)CC5)cc4)cc3S(=O)(=O)C(F)(F)F)CC2)C(C)(C)C)cc1`, the Activity in assay [1] was 78%. Besides, in assay [2], the outcome was inactive. Further, the IC50 in the assay on MOLT-4 was 181 nM.
On to `Cc1ncsc1-c1ccc([C@H](C)NC(=O)[C@@H]2C[C@@H](O)CN2C(=O)[C@@H](NC(=O)CCOCCOCCN2CCN(CC[C@H](CSc3ccccc3)Nc3ccc(S(=O)(=O)NC(=O)c4ccc(N5CCN(CC6=C(c7ccc(Cl)cc7)CCC(C)(C)C6)CC5)cc4)cc3S(=O)(=O)C(F)(F)F)CC2)C(C)(C)C)cc1`, for which, in assay [1], the Activity was determined as 55%. The outcome in assay [2] was inactive. For the same compound, the IC50 in the assay with MOLT-4 was 914 nM.
In the same order, the values of `Cc1ncsc1-c1ccc([C@H](C)NC(=O)[C@@H]2C[C@@H](O)CN2C(=O)[C@@H](NC(=O)CCOCCC(=O)N2CCN(CC[C@H](CSc3ccccc3)Nc3ccc(S(=O)(=O)NC(=O)c4ccc(N5CCN(CC6=C(c7ccc(Cl)cc7)CCC(C)(C)C6)CC5)cc4)cc3S(=O)(=O)C(F)(F)F)CC2)C(C)(C)C)cc1` are 62%, “inactive” and 324 nM.
For `Cc1ncsc1-c1ccc([C@H](C)NC(=O)[C@@H]2C[C@@H](O)CN2C(=O)[C@@H](NC(=O)CCCCCCCCCN(C)CC[C@H](CSc2ccccc2)Nc2ccc(S(=O)(=O)NC(=O)c3ccc(N4CCN(CC5=C(c6ccc(Cl)cc6)CCC(C)(C)C5)CC4)cc3)cc2S(=O)(=O)C(F)(F)F)C(C)(C)C)cc1`, the Activity in assay [1] stood at 62%. Moreover, the result in assay [2] was inactive. Moreover, the IC50 in the assay on MOLT-4 amounted to 1060 nM.
As for `Cc1ncsc1-c1ccc([C@H](C)NC(=O)[C@@H]2C[C@@H](O)CN2C(=O)[C@@H](NC(=O)CCCCN2CCN(CC[C@H](CSc3ccccc3)Nc3ccc(S(=O)(=O)NC(=O)c4ccc(N5CCN(CC6=C(c7ccc(Cl)cc7)CCC(C)(C)C6)CC5)cc4)cc3S(=O)(=O)C(F)(F)F)CC2)C(C)(C)C)cc1`, the Activity in assay [1] amounted to 61%. The result in assay [2] was inactive. The IC50 in the assay with MOLT-4 came to 130 nM.
Consider `Cc1ncsc1-c1ccc([C@H](C)NC(=O)[C@@H]2C[C@@H](O)CN2C(=O)[C@@H](NC(=O)CC(=O)N2CCN(CC[C@H](CSc3ccccc3)Nc3ccc(S(=O)(=O)NC(=O)c4ccc(N5CCN(CC6=C(c7ccc(Cl)cc7)CCC(C)(C)C6)CC5)cc4)cc3S(=O)(=O)C(F)(F)F)CC2)C(C)(C)C)cc1`, for which the Activity in assay [1] was 96%. Further, the outcome in assay [2] was inactive. The IC50 with MOLT-4 was greater than 2000 nM.
As to `Cc1ncsc1-c1ccc([C@H](C)NC(=O)[C@@H]2C[C@@H](O)CN2C(=O)[C@@H](NC(=O)CCCC(=O)N2CCN(CC[C@H](CSc3ccccc3)Nc3ccc(S(=O)(=O)NC(=O)c4ccc(N5CCN(CC6=C(c7ccc(Cl)cc7)CCC(C)(C)C6)CC5)cc4)cc3S(=O)(=O)C(F)(F)F)CC2)C(C)(C)C)cc1`, the Activity in assay [1] amounted to 82%. For the same compound, the result in assay [2] was inactive. Besides, in the assay on MOLT-4, the IC50 was greater than 2000 nM.
Consider `Cc1ncsc1-c1ccc([C@H](C)NC(=O)[C@@H]2C[C@@H](O)CN2C(=O)[C@@H](NC(=O)CCCCCCC(=O)N2CCN(CC[C@H](CSc3ccccc3)Nc3ccc(S(=O)(=O)NC(=O)c4ccc(N5CCN(CC6=C(c7ccc(Cl)cc7)CCC(C)(C)C6)CC5)cc4)cc3S(=O)(=O)C(F)(F)F)CC2)C(C)(C)C)cc1`, for which, in assay [1], the Activity worked out at 32%. The outcome in assay [2] was inactive. For the same compound, the IC50 in the assay on MOLT-4 is 108 nM.
As for `CC1(C)CCC(c2ccc(Cl)cc2)=C(CN2CCN(c3ccc(C(=O)NS(=O)(=O)c4ccc(N[C@H](CCN5CCN(C(=O)CCCCCNc6cccc7c6C(=O)N([C@@H]6CCC(=O)NC6=O)C7=O)CC5)CSc5ccccc5)c(S(=O)(=O)C(F)(F)F)c4)cc3)CC2)C1`, the Activity in assay [3] was determined as 63%. The result in assay [4] was inactive. Also, in the assay on MOLT-4, the IC50 was found to be 518 nM.

For the origin of these results see ChEMBL document CHEMBL4680217, “Discovery of PROTAC BCL-X degraders as potent anticancer agents with low on-target platelet toxicity” (Eur J Med Chem, 2020).
